From patent US20250368678A1, “19-NOR-C3,3-DISUBSTITUTED C21-AZACYCLO-S[…] AND METHOD FOR USING SAME” (SHANDONG LUYE PHARMACEUTICAL CO., LTD., priority 2022, published 2025) come the findings set out here.

Molecules are shown by their SMILES.

T2 sequence (P14867 28-456): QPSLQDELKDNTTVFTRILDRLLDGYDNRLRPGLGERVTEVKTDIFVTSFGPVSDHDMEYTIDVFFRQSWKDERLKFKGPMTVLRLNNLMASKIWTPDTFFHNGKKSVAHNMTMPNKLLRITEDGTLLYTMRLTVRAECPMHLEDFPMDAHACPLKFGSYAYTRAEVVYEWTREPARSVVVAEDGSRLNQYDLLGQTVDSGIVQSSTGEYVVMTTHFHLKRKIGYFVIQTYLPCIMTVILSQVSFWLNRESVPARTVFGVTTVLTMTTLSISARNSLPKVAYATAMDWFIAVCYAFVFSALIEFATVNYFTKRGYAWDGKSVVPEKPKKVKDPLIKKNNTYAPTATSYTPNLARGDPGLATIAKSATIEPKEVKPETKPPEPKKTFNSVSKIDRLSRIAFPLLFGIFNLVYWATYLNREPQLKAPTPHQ
T2 sequence (P47870 25-512 limits assumed): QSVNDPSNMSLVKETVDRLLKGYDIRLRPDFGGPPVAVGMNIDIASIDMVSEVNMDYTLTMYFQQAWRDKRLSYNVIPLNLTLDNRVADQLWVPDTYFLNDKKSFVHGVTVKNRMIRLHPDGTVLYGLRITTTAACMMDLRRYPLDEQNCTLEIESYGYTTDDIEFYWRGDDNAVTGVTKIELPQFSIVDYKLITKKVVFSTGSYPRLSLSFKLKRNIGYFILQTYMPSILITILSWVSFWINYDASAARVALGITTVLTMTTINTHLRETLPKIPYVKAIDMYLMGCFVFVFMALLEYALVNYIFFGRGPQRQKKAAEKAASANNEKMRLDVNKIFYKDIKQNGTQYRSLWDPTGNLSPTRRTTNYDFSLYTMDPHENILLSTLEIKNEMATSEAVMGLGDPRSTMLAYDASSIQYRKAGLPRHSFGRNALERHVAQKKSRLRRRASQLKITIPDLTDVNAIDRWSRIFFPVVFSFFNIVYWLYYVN
T2 sequence (P18507 40-475 partner): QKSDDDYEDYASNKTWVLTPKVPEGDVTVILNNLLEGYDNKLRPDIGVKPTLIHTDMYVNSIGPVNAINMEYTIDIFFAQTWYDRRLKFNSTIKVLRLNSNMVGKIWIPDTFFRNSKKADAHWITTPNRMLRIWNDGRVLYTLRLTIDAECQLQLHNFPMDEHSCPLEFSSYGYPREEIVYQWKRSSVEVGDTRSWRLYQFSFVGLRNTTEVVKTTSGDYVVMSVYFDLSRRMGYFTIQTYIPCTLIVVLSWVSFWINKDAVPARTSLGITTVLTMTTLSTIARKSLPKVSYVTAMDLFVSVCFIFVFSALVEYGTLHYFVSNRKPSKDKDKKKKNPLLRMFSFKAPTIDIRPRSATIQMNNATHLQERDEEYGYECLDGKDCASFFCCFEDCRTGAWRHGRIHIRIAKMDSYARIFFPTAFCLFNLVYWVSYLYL
T1 sequence (P48169 36-554): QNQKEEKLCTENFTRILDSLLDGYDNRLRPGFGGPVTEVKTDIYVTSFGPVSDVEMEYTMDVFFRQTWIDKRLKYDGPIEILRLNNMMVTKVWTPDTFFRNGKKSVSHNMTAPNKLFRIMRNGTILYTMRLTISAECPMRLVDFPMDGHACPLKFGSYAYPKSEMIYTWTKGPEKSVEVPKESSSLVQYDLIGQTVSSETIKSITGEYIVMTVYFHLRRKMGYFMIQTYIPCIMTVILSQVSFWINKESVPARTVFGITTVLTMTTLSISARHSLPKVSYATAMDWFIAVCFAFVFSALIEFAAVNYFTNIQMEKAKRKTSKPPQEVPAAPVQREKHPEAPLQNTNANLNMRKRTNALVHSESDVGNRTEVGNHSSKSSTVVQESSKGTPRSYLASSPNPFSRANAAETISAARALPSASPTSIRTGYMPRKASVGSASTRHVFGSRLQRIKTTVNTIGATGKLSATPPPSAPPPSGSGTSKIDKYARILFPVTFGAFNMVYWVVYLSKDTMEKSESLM
T1 sequence (P28472 26-473): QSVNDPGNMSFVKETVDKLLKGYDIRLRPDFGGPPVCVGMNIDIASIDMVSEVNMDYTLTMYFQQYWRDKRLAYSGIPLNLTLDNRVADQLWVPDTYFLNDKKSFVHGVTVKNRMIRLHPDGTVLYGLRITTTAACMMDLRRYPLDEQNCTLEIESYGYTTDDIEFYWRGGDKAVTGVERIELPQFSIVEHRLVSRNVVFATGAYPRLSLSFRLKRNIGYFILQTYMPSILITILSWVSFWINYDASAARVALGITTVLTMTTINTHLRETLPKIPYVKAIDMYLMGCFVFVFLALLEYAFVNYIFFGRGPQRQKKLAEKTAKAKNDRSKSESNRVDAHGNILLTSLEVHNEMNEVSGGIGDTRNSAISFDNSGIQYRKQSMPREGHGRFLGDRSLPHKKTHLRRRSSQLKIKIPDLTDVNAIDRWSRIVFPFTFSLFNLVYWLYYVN
T1 sequence (O14764 25-452 partner): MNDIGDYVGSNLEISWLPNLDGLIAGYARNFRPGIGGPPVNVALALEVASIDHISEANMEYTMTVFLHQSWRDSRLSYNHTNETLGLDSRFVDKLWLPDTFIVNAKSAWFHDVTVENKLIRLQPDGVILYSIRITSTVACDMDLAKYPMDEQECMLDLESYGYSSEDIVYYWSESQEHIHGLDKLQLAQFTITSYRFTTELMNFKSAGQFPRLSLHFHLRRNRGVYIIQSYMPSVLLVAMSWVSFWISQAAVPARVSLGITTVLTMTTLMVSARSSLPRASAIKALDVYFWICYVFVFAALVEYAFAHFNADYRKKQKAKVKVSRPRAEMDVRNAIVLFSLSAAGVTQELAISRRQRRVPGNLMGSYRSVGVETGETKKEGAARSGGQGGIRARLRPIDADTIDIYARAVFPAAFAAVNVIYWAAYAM

The first series has as its target T1, α4β3δ GABA receptors (α4β3δ-HEK-FlpIn-TRex stable cell strain) (Homo sapiens, UniProt P28472+P48169).
T1 construct: expressed in transfected cells
Put plainly: Whole-cell patch clamp, extrasynaptic functional activity (positive allosteric regulation of GABA-induced current). The note with it: patch clamp -60 mV, GABA at EC10-20, α4β3δ-HEK-FlpIn-TRex cells. The class given is cell-based. On the procedure: (§1) The α4β3δ-HEK-FlpIn-TRex stable cell strain was cultured in DMEM+10% FBS complete culture medium, with the selective antibiotics being 10 μg/mL Blasticidin, 100 µg/mL Zeocin, 100 µg/mL Hygromycin, and 0.2 μg/mL Puromycin. The α1β2γ2-CHO-TRex stable cell strain was cultured in DMEM/F12+10% FBS complete culture medium, with the selective antibiotics being 10 μg/mL Blasticidin, 100 μg/mL Zeocin, 300 μg/mL Hygromycin, and […] Puromycin.
(§2) The day before the patch clamp experiment, cells were seeded onto 12 mm polylysine-coated coverslips and then cultured in 35 mm culture dishes, and tetracycline ([…]) was added to induce the expression of GABA receptors. The extracellular fluid had the following composition (in mM): 140 NaCl, 3 KCl, 1.5 MgCl2, 2 CaCl2, 10 HEPES, and 10 Glucose. After thorough mixing, NaOH was added to adjust the pH to 7.4, and sucrose was added to adjust the osmotic pressure to 300-320 mOsm. The fluid was stored at 4° C. The electrode internal solution had the following composition (in mM): 145 KCl, 1 MgCl2, 5 EGTA, 10 HEPES, and 5 MgATP. After thorough mixing, KOH was added to adjust the pH to 7.3, and sucrose was added to adjust the osmotic pressure to 290-300 mOsm. The solution was filtered through a […] before use.
(§3) Whole-cell patch clamp recording was mainly employed in this experiment. The membrane potential was clamped at −60 mV, and receptors were activated using GABA at an EC10-20 concentration ([…]). The test compounds were dissolved in 0.1% DMSO, and perfusion was performed for 30 s prior to GABA stimulation. Finally, the positive allosteric regulating effects of the test compounds on α1β2γ2 or α4β3δ were determined.
(§4) The experimental result for each concentration was expressed as a fold increase in the GABA-induced current caused by the compound. […] At least 5 concentrations are tested to obtain a complete EC50 curve and EC50 values. All experiments were repeated on no less than 3 cells, and data processing was completed using GraphPad prism software. The dose-response curves were fitted using the Hill equation, and the half-maximal activating concentration EC50 and Emax were finally obtained.
Take `C[C@@]1(O)CC[C@H]2[C@H](CC[C@@H]3[C@@H]2CC[C@]2(C)[C@@H](C(=O)Cn4cnn(C5CCCC5)c4=O)CC[C@@H]32)C1` [Compound 29]: the concentration for a half-maximal effect (EC50) turned out to be 203 nM and the maximal response (Emax) was 830%.
Consider `C[C@@]1(O)CC[C@H]2[C@H](CC[C@@H]3[C@@H]2CC[C@]2(C)[C@@H](C(=O)Cn4cnn(C5CCCCC5)c4=O)CC[C@@H]32)C1` [Compound 30], for which the EC50 came to 237 nM and the Emax is 685%.

Tested on in another series: not listed separately
Put plainly: In vitro liver microsomal stability assay, human. The note with it: Human liver microsomes. The class given is in vitro ADME. On the procedure: (§5) 1) Preparation of working solutions of test samples: The test samples were diluted with acetonitrile to 100 M.
(§6) 2) Preparation of a working solution of liver microsomes: liver microsomes were diluted with 100 mM phosphate-buffered saline to 0.56 mg/mL.
(§7) 3) Preparation of a working solution of reduced nicotinamide adenine dinucleotide (NADPH): A proper amount of NADPH was weighed out and diluted with phosphate-buffered saline to 20 mM, and an equal volume of a 60 mM MgCl2 solution was added.
(§8) 4) Preparation of a stop solution: Tolbutamide was diluted with acetonitrile to 20 ng/mL, serving as a stop solution containing an internal standard.
(§9) 1) Incubation anti-adsorption EP tubes were prepared and labeled with species, test/control sample, time points (0, 5, 10, 20, 30, 60 min, Blank60, and NCF60), etc.
(§10) 2) 2 L of test or control sample working solution, diluted with acetonitrile to 100 M, and 178 L of liver microsome working solution were added to each tube. For the Blank60 tube, 2 L of acetonitrile was added instead of a test sample. The tubes were pre-incubated in a 37° C. water bath for about 10 min, with each sample tested in triplicate.
(§11) 3) After the pre-incubation was complete, 20 L of NADPH working solution was added to each tube except for the 0 min and NCF60 tubes to start reactions, and 20 L of phosphate-buffered saline (containing 30 mM MgCl2) was added to the NCF60 tube. In the incubation system, the final concentrations of the test and control samples were 1 M, the final concentration of liver microsomes was 0.5 mg/mL, the final concentration of NADPH was 1 mM, and the final concentration of MgCl2 was 3 mM.
(§12) 4) For the 0 min sample, 600 L of stop solution was added before adding the NADPH working solution. After each sample was incubated for its respective time, 600 L of stop solution was added to stop the reaction.
(§13) 5) After the reaction was stopped, each sample was vortexed for 30 s and then centrifuged at 13,500 rpm for 10 min. 100 L of the supernatant was transferred to an EP tube, and 100 L Milli-Q water was added. The mixture was well mixed by vortexing and analyzed by LC-MS/MS.
(§14) 6) Testosterone and dextromethorphan were used as positive control samples under the same conditions to assess the stability and reliability of the system.
(§15) Parameters of the test samples, including their half-lives, intrinsic clearance rates in liver microsomes, and hepatic intrinsic clearance rates, were calculated based on the percentage of test sample remaining.
In general terms: Microsomes from liver hold many membrane-bound enzymes, among them those of drug oxidation.
Molecule `C[C@@]1(O)CC[C@H]2[C@H](CC[C@@H]3[C@@H]2CC[C@]2(C)[C@@H](C(=O)Cn4cnn(C5CCCC5)c4=O)CC[C@@H]32)C1` [Compound 29] returned a CLint scaled at 1 µM of 60 mL/min/kg and a half-life at 1 µM of 20.7 min.
On the same counts, the results for `C[C@@]1(O)CC[C@H]2[C@H](CC[C@@H]3[C@@H]2CC[C@]2(C)[C@@H](C(=O)Cn4cnn(C5CCCCC5)c4=O)CC[C@@H]32)C1` [Compound 30] are 91 mL/min/kg and 17.5 min.

Staying with this series, now noted: Human liver microsomes 0.5 mg/mL, NADPH.
Turning to `C[C@@]1(O)CC[C@H]2[C@H](CC[C@@H]3[C@@H]2CC[C@]2(C)[C@@H](C(=O)Cn4cnn(C5CCCC5)c4=O)CC[C@@H]32)C1` [Compound 29], the “Remaining amount % at 60 min” value was 45.8%.
For `C[C@@]1(O)CC[C@H]2[C@H](CC[C@@H]3[C@@H]2CC[C@]2(C)[C@@H](C(=O)Cn4cnn(C5CCCCC5)c4=O)CC[C@@H]32)C1` [Compound 30], the “Remaining amount % at 60 min” value stood at 9.5%.

Still in this series, the particulars now being: Human liver microsomes; read-out: CLint(mic).
As to `C[C@@]1(O)CC[C@H]2[C@H](CC[C@@H]3[C@@H]2CC[C@]2(C)[C@@H](C(=O)Cn4cnn(C5CCCC5)c4=O)CC[C@@H]32)C1` [Compound 29], the microsomal CLint at 1 µM is 67 µL/min/mg.
As for `C[C@@]1(O)CC[C@H]2[C@H](CC[C@@H]3[C@@H]2CC[C@]2(C)[C@@H](C(=O)Cn4cnn(C5CCCCC5)c4=O)CC[C@@H]32)C1` [Compound 30], the microsomal CLint at 1 µM worked out at 79 µL/min/mg.

The next series concerns the target T2, α1β2γ2 GABA receptors (α1β2γ2-CHO-TRex stable cell strain) (Homo sapiens, UniProt P14867+P47870).
T2 construct: expressed in transfected cells
Put plainly: Whole-cell patch clamp, intrasynaptic functional activity (positive allosteric regulation of GABA-induced current). The class given is cell-based. As to conditions: patch clamp -60 mV, GABA at EC10-20, α1β2γ2-CHO-TRex cells. On the procedure:
as §1, §2, §3, §4
On the technique in general: The patch-clamp technique gives a direct electrical read-out from membranes.
As for `C[C@@]1(O)CC[C@H]2[C@H](CC[C@@H]3[C@@H]2CC[C@]2(C)[C@@H](C(=O)Cn4cnn(C5CCCC5)c4=O)CC[C@@H]32)C1` [Compound 29], the midpoint of the response, the EC50, lay at 192 nM and the Emax was determined as 691%.
Consider `C[C@@]1(O)CC[C@H]2[C@H](CC[C@@H]3[C@@H]2CC[C@]2(C)[C@@H](C(=O)Cn4cnn(C5CCCCC5)c4=O)CC[C@@H]32)C1` [Compound 30], for which the 50% effective concentration (EC50) amounted to 585 nM and the maximum response (Emax) was found to be 873%.

Tested on in the next series: not listed separately
Description: In vitro liver microsomal stability assay, rat. The class given is in vitro ADME. As to conditions: Rat liver microsomes. The procedure:
as §5, §6, §7, §8, §9, §10, §11, §12, §13, §14, §15
`C[C@@]1(O)CC[C@H]2[C@H](CC[C@@H]3[C@@H]2CC[C@]2(C)[C@@H](C(=O)Cn4cnn(C5CCCC5)c4=O)CC[C@@H]32)C1` [Compound 29] came in with a CLint scaled at 1 µM of 64 mL/min/kg and a half-life at 1 µM of 38.7 min.
`C[C@@]1(O)CC[C@H]2[C@H](CC[C@@H]3[C@@H]2CC[C@]2(C)[C@@H](C(=O)Cn4cnn(C5CCCCC5)c4=O)CC[C@@H]32)C1` [Compound 30]: the intrinsic metabolic clearance (CLint scaled) at 1 µM turned out to be 329 mL/min/kg and the half-life at 1 µM is 7.6 min.

The same series, now with this note: Rat liver microsomes 0.5 mg/mL, NADPH.
As for `C[C@@]1(O)CC[C@H]2[C@H](CC[C@@H]3[C@@H]2CC[C@]2(C)[C@@H](C(=O)Cn4cnn(C5CCCC5)c4=O)CC[C@@H]32)C1` [Compound 29], the “Remaining amount % at 60 min” value is given as 36.8%.
On to `C[C@@]1(O)CC[C@H]2[C@H](CC[C@@H]3[C@@H]2CC[C@]2(C)[C@@H](C(=O)Cn4cnn(C5CCCCC5)c4=O)CC[C@@H]32)C1` [Compound 30], for which the “Remaining amount % at 60 min” value worked out at 7.4%.

The series is the same for the next values; noted with them: Rat liver microsomes; read-out: CLint(mic).
With `C[C@@]1(O)CC[C@H]2[C@H](CC[C@@H]3[C@@H]2CC[C@]2(C)[C@@H](C(=O)Cn4cnn(C5CCCC5)c4=O)CC[C@@H]32)C1` [Compound 29], the microsomal CLint at 1 µM was found to be 36 µL/min/mg.
As for `C[C@@]1(O)CC[C@H]2[C@H](CC[C@@H]3[C@@H]2CC[C@]2(C)[C@@H](C(=O)Cn4cnn(C5CCCCC5)c4=O)CC[C@@H]32)C1` [Compound 30], the microsomal CLint at 1 µM was 183 µL/min/mg.

As a reminder, the EC50 is the concentration at which the effect is half-maximal. Low values mean higher potency in that assay, high ones lower potency in that assay. By Emax is commonly meant the size of the effect at its maximum, as opposed to the concentration needed. The CLint scaled is the rate of metabolic loss divided by the concentration. One may read the half-life as how long it takes for the measured level to halve.
